Data published in patent publication US20030095953A1, “METHODS OF REVERSING DRUG RESISTANCE IN CANCER CELLS” (priority 1999, published 2003).
Structures can show the parent of a compound that is named as a salt. Where two headings read alike, the source gives them in different places.

Tests used:
Type in all cases: cell-based, human
MCF-7-AdrR cells [1] = experiment: Cytotoxicity assay in MCF-7-AdrR cells; settings: 72 hr exposure, read-out: EC50 (amount of drug provoking 50% cell death)
Procedure: (§1) Cytotoxicity Assay. Assays were performed as previously described (Liu, Y. Y., et al., (1999) J. Biol. Chem. 274, 1140-1146; Lavie, Y. et al., (1997) J. Biol. Chem. 272, 1682-1687). Briefly, cells were seeded in 96-well plates (2,000 cells/well), in 0.1 ml RPMI-1640 medium containing 10% FBS, and cultured at 37° C. for 24 hr before addition of drug. Drugs were added in FBS-free medium (0.1 ml), and cells were cultured at 37° C. for the indicated periods. Drug cytotoxicity was determined using the Promega 96 Aqueous cell proliferation assay kit (Promega, Madison, Wis.). Absorbance at 490 nm was recorded using a Microplate Fluorescent Reader, model FL600 (Bio-Tek, Winooski, Vt.).

MCF-7-AdrR/asGCS cells [2] = experiment: Cytotoxicity assay in MCF-7-AdrR/asGCS cells; settings: 72 hr exposure; for EC50: Homo sapiens, MCF-7-AdrR/asGCS cells, read-out: EC50 (amount of drug provoking 50% cell death)
Procedure: as §1

MCF-7-AdrR cells [3] = experiment: Analysis of ceramide in MCF-7-AdrR cells; settings: 48 hr
Procedure: (§2) Analysis of Ceramide. Analysis was performed as previously described (Liu, Y. Y.et al., (1999) J. Biol. Chem. 274, 1140-1146, Lavie, Y., et al., (1996) J. Biol. Chem. 271, 19530-19536). Cells were seeded in 6-well plates (60,000 cells/well) in 10% FBS RPMI-1640 medium. After 24 hr, cells were shifted to 5% FBS medium with or without adriamycin, and grown for the indicated times. Cellular lipids were radiolabeled by adding [3H]palmitic acid (2.5 μCi/ml culture medium) for 24 hr. After removal of medium, cells were rinsed twice with PBS (pH 7.4), and total lipids were extracted as described (Lavie, Y. et al.,. (1996) J. Biol. Chem. 271, 19530-19536). The resulting organic lower phase was withdrawn and evaporated under a stream of nitrogen. Lipids were resuspended in 100 μl of chloroform/methanol (1:1, v/v), and aliquots were applied to TLC plates. Ceramide was resolved using a solvent system containing chloroform/acetic acid (90:10, v/v). Commercial lipid standards were co-chromatographed. After development, lipids were visualized by iodine vapor staining, and the ceramide area was scraped into 0.5 ml water. EcoLume counting fluid (4.5 ml) was added, the samples were mixed, and radioactivity was quantitated by liquid scintillation spectrometry.

MCF-7-AdrR/asGCS cells [4] = experiment: Analysis of ceramide in MCF-7-AdrR/asGCS cells
Procedure: as §2

caspase-3 [5] = experiment: Caspase-3 assay (DEVD-AFC cleavage) in MCF-7-AdrR/asGCS cells; settings: for increase of caspase-3 activity over control: MCF-7-AdrR/asGCS cells, 10 μM; for caspase-3 activity in GCS antisense-transfected cells vs parental cells: adriamycin 10 μM
Procedure: (§3) Caspase-3 Assay. Caspase-3 activity was assayed by DEVD-AFC cleavage, using the ApoAlert Caspase-3 assay kit (Clontech, Palo Alto, Calif.). The assay was performed as previously described (Liu, Y. Y., et al., (1999) Exp. Cell Res. 252, 464-470). Cells were seeded in 100-mm dishes (500,000 cells/dish) in 10% FBS RPMI-1640 medium. After 24 hr, cells were shifted to 5% FBS RPMI-1640 medium without or with adriamycin, and grown for 24 and 48 hr. Following harvest, cells ([…]) were lysed on ice for 10 min with 50 μl of lysis buffer, and cell debris was removed by centrifugation at 4° C., 10,000×g, for 5 min. The soluble fraction was incubated with 50 μM conjugated substrate DEVD-AFC in a 100 μl reaction volume at 37° C., for 60 min. The free AFC fluoresce was measured at λexcitation 400 nm and λemission 505 nm using a FL600 Microplate Fluorescence Reader. The caspase-3 inhibitor, acetyl-Asp-Glu-Val-Asp-aldehyde was used to exclude nonspecific background in the enzymatic reaction.

caspase-3 [6] = experiment: Caspase-3 assay (DEVD-AFC cleavage) in MCF-7-AdrR cells; settings: 10 μM, 48 hr
Procedure: as §3

Compound	EC50 (MCF-7-AdrR cells [1]; Homo sapiens, 72 h) [µM]	decrease of EC50 in MCF-7-AdrR/asGCS vs MCF-7-AdrR cells (MCF-7-AdrR/asGCS cells [2]) [fold]	EC50 (MCF-7-AdrR/asGCS cells [2]) [µM]	increase of ceramide levels above control (MCF-7-AdrR cells [3]; adriamycin 2.5 μM) [%]	ceramide level response (MCF-7-AdrR cells [3]; adriamycin 0.5-2.5 μM)	enhancement of ceramide levels (MCF-7-AdrR/asGCS cells [4]; adriamycin 0.5 μM, 48 hr) [%]	enhancement of ceramide levels (MCF-7-AdrR/asGCS cells [4]; adriamycin 1.0 μM, 48 hr) [%]	increase of ceramide levels (MCF-7-AdrR/asGCS cells [4]; adriamycin 2.5 μM, 24 hr) [%]	increase of ceramide levels (MCF-7-AdrR/asGCS cells [4]; adriamycin 2.5 μM, 48 hr) [%]	enhancement of ceramide levels (MCF-7-AdrR/asGCS cells [4]; adriamycin 2.5 μM, 48 hr (dose series)) [%]	EC50 (MCF-7-AdrR cells [1]; hydrochloride) [µM]	increase of caspase-3 activity over control (caspase-3 [5]; 24 hr) [%]	increase of caspase-3 activity over control (caspase-3 [5]; 48 hr) [%]	caspase-3 activity in GCS antisense-transfected cells vs parental cells (caspase-3 [5]; 24 hr) [fold]	caspase-3 activity in GCS antisense-transfected cells vs parental cells (caspase-3 [5]; 48 hr) [fold]	increase of caspase-3 activity (caspase-3 [6]) [%]
CCCCCCCCCCCCC/C=C/[C@@H](O)[C@H](CO)NC(=O)CCCCC [C6-ceramide, N-hexanoylsphingosine]	9.6 ± 0.5	2.4	4 ± 0.03													
COc1cccc2c1C(=O)c1c(O)c3c(c(O)c1C2=O)C[C@@](O)(C(=O)CO)C[C@@H]3O[C@H]1C[C@H](N)[C@H](O)[C@H](C)O1 [adriamycin, doxorubicin hydrochloride]	12.4 ± 0.7	28	0.44 ± 0.01	16	minimal response	181	188	200	250	246	10	290	980	3	6	160
